Experimental data: patent US20190211099A1, “METHODS AND COMPOSITIONS FOR TREATING CANCER WITH SIGLEC-9 ACTIVITY MODULATORS” (KING'S COLLEGE LONDON, priority 2016, published 2019)

How the values were obtained:
SHP2 = assay: Activation of SHP2 after MUC1-ST binding; format: cell-based, human
Procedure: ELISAs for IL-6, IL-12p70, TGF-β1, PAI-1, M-CSF, EGF, SHP2, phospho-SHP2 (Biotechne) were all carried out as per manufacturer's instructions.
A Western blot to assay phosphorylation of SHP, which is recruited by phosphorylated Siglec-9 (Avril et al. (2004) supra) was conducted. Monocytes were incubated with MUC1-ST and lysed as described above, and the resulting lysates were separated by SDS PAGE (10% gel) before being transferred, blocked and probed with anti-SHP1 (Santa Cruz), anti-phospho SHP1 (Abcam) and appropriate secondary antibodies. Phosphorylation of SHP was not observed after MUC1-ST binding to Siglec-9 on primary monocytes (FIG. 13C) although again, phosphorylation of SHP1 was observed when Siglec-9 was activated via antibody cross-linking. No activation of SHP2 was observed.

[1] = system: M-CSF macrophages differentiated with LPS and IFNγ; assay: Differentiation of monocytes into M(LPS+IFNγ) macrophages: CD86 and IL-12; format: cell-based, human; details: MUC1-ST added at day 1 of the culture
Procedure: Both the cell phenotype staining and neutralization studies described in the Examples were performed using the following antibodies (all anti-human): Siglec-9 (Biotechne; 191240), Siglec-9 FITC (Biotechne; 191240), Siglec-3 (Biotechne; 6C5/2), Siglec-7 (Biotechne; AF1138), Siglec-3 FITC (BD; P67.6), Siglec-7 PE (Biolegend; 6-434), Siglec-10 PE (Biolegend; 5G6), Siglec-1 (abcam; 7D2), HLA-DR FITC (Beckman Coulter; IM0463U), CD16 FITC (Biolegend; B73.1), CD14 FITC (BD 555397), CD69 PE (Beckman Coulter; IM1943), CD25 FITC (ABX228FITC), CD86 PE (Beckman Coulter; IM2729U), CD40 FITC (BD 555588), CD83 PE (Beckman Coulter; IM2218), CD163 PE (Biolegend; GHI/61), CXCR1 FITC (BD Pharmongen; 551126), CD45 PC5 (Beckman Coulter; IM2653U), CD206 PE (ebioscience; 19.2), PD-L1 PE (Biolegend; 29E.2A3), CD36 (Santa Cruz; H-300), TGFbetaRII (Bio-Techne; AF-241), IL-6Rα (Tocilizumab; Roche. A generous gift from Dr. Valerie Corrigall). […] At least 1×10^4 events were evaluated using either Epics XL, (Beckman Coulter) or FACSCalibur (BD Biosciences) flow cytometers. […]
Given that IL-6 and NO are known differentiation modulators (Oosterhoff et al. (2012) ONCOIMMUNOLOGY 1: 649-658; Bogdan (2015) TREND IMMUNOL. 36: 161-178) the effects of MUC1-ST on the differentiation of monocytes into macrophages was assessed. […]

monocytes = assay: Calcium flux in monocytes (Fluo-4 intracellular calcium reporter); format: cell-based, human; details: monocytes or macrophages, 100 μg/10^6 cells
Procedure: In addition, in a murine tumor model Siglec-E (the mouse Siglec with the most similarity to human Siglec-9), was associated with a decrease in alternatively activated macrophages (Laubli et al. (2014) PROC. NATL. ACAD. SCI. USA). As a result, the triggering of a calcium flux when MUC1-ST engaged Siglec-9 was investigated. Briefly, monocytes pre-labeled with an intracellular calcium reporter (Fluo-4; Life Technologies) were treated with MUC1-ST, MUC1-T (100 μg/10^6 cells) or a T47D monolayer, for 4 hours at 4° C. The cells were brought up to 37° C. and calcium flux was measured at 530 nm using a plate reader at the indicated time points. Where not indicated, the time point was 60 seconds. When monocytes or macrophages were treated with MUC1-ST, a Siglec-9 dependent increase in calcium influx was observed (FIGS. 13E-F). A calcium flux was also observed when monocytes and T47D cells came into contact. This effect could also be inhibited by the anti-Siglec-9 antibody.

monocytes from PBMCs = assay: MUC1-ST mediated TAM formation in monocytes from PBMCs, 7 day serum-free culture; format: cell-based, human
Procedure: To further explore the role of MUC1-ST in inducing a TAM-like phenotype, monocytes from PBMCs were plated in serum-free medium, incubated with MUC1-ST or PBS, and cultured for 7 days.
Intracellular calcium flux can lead to activation of the MEK/ERK pathway (Christo et al. (2015) IMMUNOL. AND CELL BIOLOGY 93: 694-704). […] Furthermore, treatment with the MEK inhibitor PD98059 at 10 μM inhibited MUC1-ST mediated TAM formation in monocytes (FIGS. 12B, 12D-12E).

[2] = system: indoleamine 2,3-dioxygenase (IDO); assay: IDO mRNA in monocyte-derived macrophages (qRT-PCR); format: cell-based, human; details: macrophages differentiated with GM-CSF or M-CSF
Siglec-9 = Siglec-9 (Homo sapiens, UniProt Q9Y336); assay: Binding of biotinylated MUC1 glycoforms to plate-bound recombinant Siglec fusion proteins; details: 2 μg/ml biotinylated MUC1 glycoform, 4 hours; compared with Siglecs 3, 7 and 10
Chain of Siglec-9 (Q9Y336 with tags, fused parts or gaps limits assumed): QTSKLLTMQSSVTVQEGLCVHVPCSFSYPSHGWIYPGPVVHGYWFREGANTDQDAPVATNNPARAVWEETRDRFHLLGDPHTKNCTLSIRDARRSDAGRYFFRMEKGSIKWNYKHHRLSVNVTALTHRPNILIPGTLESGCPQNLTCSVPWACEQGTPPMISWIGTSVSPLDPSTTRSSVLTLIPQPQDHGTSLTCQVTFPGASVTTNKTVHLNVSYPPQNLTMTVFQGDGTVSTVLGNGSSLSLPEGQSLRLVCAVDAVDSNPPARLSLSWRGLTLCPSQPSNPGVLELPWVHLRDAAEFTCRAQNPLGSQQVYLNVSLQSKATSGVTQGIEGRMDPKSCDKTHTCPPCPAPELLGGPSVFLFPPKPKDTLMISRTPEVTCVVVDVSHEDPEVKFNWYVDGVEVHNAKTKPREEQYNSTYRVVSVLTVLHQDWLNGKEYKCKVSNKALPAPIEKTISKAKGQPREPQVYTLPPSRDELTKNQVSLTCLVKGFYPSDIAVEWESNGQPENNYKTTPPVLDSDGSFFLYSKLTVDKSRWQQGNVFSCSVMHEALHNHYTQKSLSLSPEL
Procedure: Binding was enhanced when cells were pre-treated with 0.04 U/ml neuraminidase for 30 minutes at 37° C. in PBS (FIG. 3C), which removes competing cis-binding sialic acid sites from the surface of the cells. As this pattern is characteristic of binding to Siglecs (Macauley et al. (2014) NAT. REV. IMMUNOL. 14: 653-666), MUC1-ST binding to Siglecs was tested as follows: mouse anti human IgG was bound to plastic O/N and the plate was blocked using 1% BSA in PBS. Recombinant human Siglec (3, 5, 7, 8, 9 and 10) fusion proteins were added at 2 μg/mL for 2 hours. After incubation with 2 μg/ml biotinylated MUC1 glycoforms for 4 hours, O.D. was measured after the addition of streptavidin-HRP and substrate. […] Although Siglecs 3, 7 and 9 are expressed by monocytes and macrophages (FIG. 3D), a blocking antibody to Siglec-9 inhibited 80-95% of the MUC1-ST binding to these cells (FIGS. 2G-2I, 3E, and 5) indicating this is the dominant binding Siglec. […] Importantly, Siglec-9 bound to the breast cancer cell line T47D that expresses MUC1 carrying sialylated Core-1 glycans (FIG. 2J). Finally, isolated monocytes were bound to 10 μg/mL biotinylated MUC1-ST or 10 μg/mL biotinylated polyacrylamide carrying the ST glycan (PAA-ST; Glycotech).

## NeuAcα2,3Galβ1-3GalNAc linked via a Ser/Thr of MUC1 [MUC1-ST]
SHP2
  activation of SHP2: No activation
[1]
  levels of CD86 and IL-12: lower levels
monocytes
  calcium influx: increase
Monocytes from PBMCs
  expression of ECM component collagen type I: increased expression
Monocytes from PBMCs; 7 days, serum-free medium
  percentage of live macrophages in the culture: increased
Monocytes from PBMCs; flow cytometry
  expression of TAM markers such as CD206 and PD-L1: increased expression
[2]
  increase in expression of mRNA encoding IDO: 10-25 fold
Siglec-9
  binding to recombinant Siglec fusion protein: greatest binding
